# Results reported in patent EP3046573B1, “AMYLIN ANALOGUES” (Zealand Pharma A/S, priority 2013, dated 2015).
# Read-outs that look alike come from different tables or passages of the source. Numbered stars: 1 amine (or outer) side, 2 acyl side, 3 side chain; on linkers, the order of the positions; unused ones are H or OH. Bridge positions count the residues as written; N and C are the ends. Square brackets hold non-standard residues; d marks the D form. Peptide text beside a SMILES is read from it. * marks the point of attachment. C20 diacid = O=C(O)CCCCCCCCCCCCCCCCCCC(=O)*; γGlu = O=C(O)[C@H](CCC(=O)[*:2])N[*:1]; NMeI = CC[C@H](C)[C@H](NC)C(=O)O; Sar = CNCC(=O)O
# Legend:
# [1] = biological target: T1, human calcitonin receptor (hCTR2) (Homo sapiens, UniProt P30988); assay: hCTR2 assay: induction of cAMP (AlphaScreen cAMP Assay kit) in COS7 cells expressing hCTR2; assay type: cell-based
# T1 construct: expressed in transfected cells
# T1 sequence (P30988 25-474): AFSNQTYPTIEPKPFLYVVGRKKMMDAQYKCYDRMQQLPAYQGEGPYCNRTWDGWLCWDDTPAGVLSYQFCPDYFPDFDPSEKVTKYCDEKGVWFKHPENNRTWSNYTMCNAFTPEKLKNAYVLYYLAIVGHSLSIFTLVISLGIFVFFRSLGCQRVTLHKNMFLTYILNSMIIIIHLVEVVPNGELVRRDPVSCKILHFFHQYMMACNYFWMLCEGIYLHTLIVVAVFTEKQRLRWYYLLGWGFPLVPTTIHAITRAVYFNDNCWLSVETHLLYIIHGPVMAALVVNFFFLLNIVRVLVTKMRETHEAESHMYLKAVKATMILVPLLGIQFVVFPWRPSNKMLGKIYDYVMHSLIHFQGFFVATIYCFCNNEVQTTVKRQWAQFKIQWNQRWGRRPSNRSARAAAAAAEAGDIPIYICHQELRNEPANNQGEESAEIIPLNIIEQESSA
# How it was run: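 COS7 stable hCTR2 clone (RAMP-free); peptide dose-response 15 min 37° C in Tyrode pH 7.4 + 100 µM IBMX + 0.1% casein; lysis 10 min RT; AlphaScreen cAMP; 4PL fit.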
# [2] = Solubility assessment (turbidity absorbance at 325 nm); assay type: physicochemical; details: stock 2 mg/ml diluted 1:1, ambient temperature (typically 25°C), n=1; for Solubility, Acetate buffer pH 4: 100 mM acetate buffer pH 4.0; for Solubility, Acetate buffer pH 5: 100 mM acetate buffer pH 5.0; for Solubility, Histidine buffer pH 6: 100 mM histidine buffer pH 6.0; for Solubility, Histidine buffer pH 7: 100 mM histidine buffer pH 7.0; for Solubility, Phosphate buffer pH 6: 100 mM phosphate buffer pH 6.0; for Solubility, Phosphate buffer pH 7: 100 mM phosphate buffer pH 7.0; for Solubility, Phosphate buffer pH 7.5: 100 mM phosphate buffer pH7.5
# How it was run: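 Peptide stock (2 mg/ml) in water acidified to pH 2.5 with HCl was diluted 1:1 into 100 mM acetate (pH 4.0, 5.0), histidine (pH 6.0, 7.0) or phosphate (pH 6.0, 7.0, 7.5) buffer. A280 and A325 were read at about 25°C, n=1. A325 ≤ 0.02 meant solubility ≥ 1 mg/ml.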
# [3] = cAMP induction in COS7 cells expressing hCTR2, average of a minimum of 3 determinations, read-out: hCTR2 EC50
"Solubility, Acetate buffer pH 4 [2]","Solubility, Acetate buffer pH 5 [2]","Solubility, Histidine buffer pH 6 [2]","Solubility, Histidine buffer pH 7 [2]","Solubility, Phosphate buffer pH 6 [2]","Solubility, Phosphate buffer pH 7 [2]","Solubility, Phosphate buffer pH 7.5 [2]","EC50 [1, 3]",SMILES,EC50 [1]
II (II indicates solubility ≤ 1 mg/ml),II (II indicates solubility ≤ 1 mg/ml),II (II indicates solubility ≤ 1 mg/ml),II (II indicates solubility ≤ 1 mg/ml),II (II indicates solubility ≤ 1 mg/ml),II (II indicates solubility ≤ 1 mg/ml),II (II indicates solubility ≤ 1 mg/ml),150 pM,"CC[C@H](C)[C@@H](C(=O)N[C@@H](CC(C)C)C(=O)N[C@@H](CO)C(=O)N[C@@H](CO)C(=O)N[C@H](C(=O)N[C@@H](CC(N)=O)C(=O)N[C@H](C(=O)NCC(=O)N[C@@H](CO)C(=O)N[C@@H](CC(N)=O)C(=O)N[C@H](C(=O)N1CCC[C@H]1C(N)=O)[C@@H](C)O)C(C)C)[C@@H](C)O)N(C)C(=O)CN(C)C(=O)[C@H](Cc1ccccc1)NC(=O)[C@H](CC(N)=O)NC(=O)[C@H](CC(N)=O)NC(=O)[C@H](CO)NC(=O)[C@H](Cc1c[nH]cn1)NC(=O)[C@H](Cc1c[nH]cn1)NC(=O)[C@H](CC(C)C)NC(=O)[C@H](Cc1ccccc1)NC(=O)[C@H](CCC(=O)O)NC(=O)[C@H](C)NC(=O)[C@H](CC(C)C)NC(=O)[C@H](CCCNC(=N)N)NC(=O)[C@H](CCC(N)=O)NC(=O)[C@@H](NC(=O)[C@H](C)NC(=O)[C@@H]1CSSC[C@H](NC(=O)[C@H](CCCNC(=N)N)NC(=O)CC[C@H](NC(=O)CCCCCCCCCCCCCCCCCCC(=O)O)C(=O)O)C(=O)N[C@@H](CC(N)=O)C(=O)N[C@@H]([C@@H](C)O)C(=O)N[C@@H](C)C(=O)N[C@@H]([C@@H](C)O)C(=O)N1)[C@@H](C)O [Compound 46, [19CD]-isoGlu-RC()NTATC()ATQRLAEFLHHSNNF-Gly(Me)-Ile(Me)-LSSTNVGSNTP-NH2] ({C20 diacid-γGlu}-RCNTATCATQRLAEFLHHSNNF[Sar][NMeI]LSSTNVGSNTP-NH2; disulfide 2-7)",–
SS (SS indicates solubility ≥ 1mg/ml),SS (SS indicates solubility ≥ 1mg/ml),SS (SS indicates solubility ≥ 1mg/ml),SS (SS indicates solubility ≥ 1mg/ml),SS (SS indicates solubility ≥ 1mg/ml),SS (SS indicates solubility ≥ 1mg/ml),SS (SS indicates solubility ≥ 1mg/ml),60 pM,"CC[C@H](C)[C@@H](C(=O)N[C@@H](CC(C)C)C(=O)N[C@@H](CO)C(=O)N[C@@H](CO)C(=O)N[C@H](C(=O)N[C@@H](CC(N)=O)C(=O)N[C@H](C(=O)NCC(=O)N[C@@H](CO)C(=O)N[C@@H](CC(N)=O)C(=O)N[C@H](C(=O)N1CCC[C@H]1C(N)=O)[C@@H](C)O)C(C)C)[C@@H](C)O)N(C)C(=O)[C@H](C)NC(=O)CN(C)C(=O)[C@H](Cc1ccccc1)NC(=O)[C@H](CC(N)=O)NC(=O)[C@H](CC(N)=O)NC(=O)[C@H](Cc1c[nH]cn1)NC(=O)[C@H](Cc1c[nH]cn1)NC(=O)[C@H](CC(C)C)NC(=O)[C@H](Cc1ccccc1)NC(=O)[C@H](CCC(=O)O)NC(=O)[C@H](C)NC(=O)[C@H](CC(C)C)NC(=O)[C@H](CCCNC(=N)N)NC(=O)[C@H](CCC(N)=O)NC(=O)[C@@H](NC(=O)[C@H](C)NC(=O)[C@@H]1CSSC[C@H](NC(=O)[C@H](CCCNC(=N)N)NC(=O)CC[C@H](NC(=O)CCCCCCCCCCCCCCCCCCC(=O)O)C(=O)O)C(=O)N[C@@H](CC(N)=O)C(=O)N[C@@H]([C@@H](C)O)C(=O)N[C@@H](C)C(=O)N[C@@H]([C@@H](C)O)C(=O)N1)[C@@H](C)O [Compound 47, [19CD]-isoGlu-RC()NTATC()ATQRLAEFLHHNNF-Gly(Me)-A-Ile(Me)-LSSTNVGSNTP-NH2] ({C20 diacid-γGlu}-RCNTATCATQRLAEFLHHNNF[Sar]A[NMeI]LSSTNVGSNTP-NH2; disulfide 2-7)",–
SS (SS indicates solubility ≥ 1mg/ml),SS (SS indicates solubility ≥ 1mg/ml),SS (SS indicates solubility ≥ 1mg/ml),SS (SS indicates solubility ≥ 1mg/ml),SS (SS indicates solubility ≥ 1mg/ml),SS (SS indicates solubility ≥ 1mg/ml),SS (SS indicates solubility ≥ 1mg/ml),120 pM,"CC[C@H](C)[C@@H](C(=O)N[C@@H](CC(C)C)C(=O)N[C@@H](CO)C(=O)N[C@@H](CO)C(=O)N[C@H](C(=O)N[C@@H](CC(N)=O)C(=O)N[C@H](C(=O)NCC(=O)N[C@@H](CO)C(=O)N[C@@H](CC(N)=O)C(=O)N[C@H](C(=O)N1CCC[C@H]1C(N)=O)[C@@H](C)O)C(C)C)[C@@H](C)O)N(C)C(=O)CN(C)C(=O)[C@H](Cc1ccccc1)NC(=O)[C@H](CC(N)=O)NC(=O)[C@H](CC(N)=O)NC(=O)[C@H](Cc1c[nH]cn1)NC(=O)[C@H](Cc1c[nH]cn1)NC(=O)[C@H](CC(C)C)NC(=O)[C@H](Cc1ccccc1)NC(=O)[C@H](CCC(=O)O)NC(=O)[C@H](C)NC(=O)[C@H](CC(C)C)NC(=O)[C@H](CCCNC(=N)N)NC(=O)[C@H](CCC(N)=O)NC(=O)[C@@H](NC(=O)[C@H](C)NC(=O)[C@@H]1CSSC[C@H](NC(=O)[C@H](CCCNC(=N)N)NC(=O)CC[C@H](NC(=O)CCCCCCCCCCCCCCCCCCC(=O)O)C(=O)O)C(=O)N[C@@H](CC(N)=O)C(=O)N[C@@H]([C@@H](C)O)C(=O)N[C@@H](C)C(=O)N[C@@H]([C@@H](C)O)C(=O)N1)[C@@H](C)O [Compound 48, [19CD]-isoGlu-RC()NTATC()ATQRLAEFLHHNNF-Gly(Me)-Ile(Me)-LSSTNVGSNTP-NH2] ({C20 diacid-γGlu}-RCNTATCATQRLAEFLHHNNF[Sar][NMeI]LSSTNVGSNTP-NH2; disulfide 2-7)",–

SMILES,"Solubility, Acetate buffer pH 4 [2]","Solubility, Acetate buffer pH 5 [2]","Solubility, Histidine buffer pH 6 [2]","Solubility, Histidine buffer pH 7 [2]","Solubility, Phosphate buffer pH 6 [2]","Solubility, Phosphate buffer pH 7 [2]","Solubility, Phosphate buffer pH 7.5 [2]","EC50 [1, 3]",EC50 [1]
"CC[C@H](C)[C@@H](C(=O)N[C@@H](CC(C)C)C(=O)N[C@@H](CO)C(=O)N[C@@H](CO)C(=O)N[C@H](C(=O)N[C@@H](CC(N)=O)C(=O)N[C@H](C(=O)NCC(=O)N[C@@H](CO)C(=O)N[C@@H](CC(N)=O)C(=O)N[C@H](C(=O)N1CCC[C@H]1C(N)=O)[C@@H](C)O)C(C)C)[C@@H](C)O)N(C)C(=O)[C@H](C)NC(=O)CN(C)C(=O)[C@H](Cc1ccccc1)NC(=O)[C@H](CC(N)=O)NC(=O)[C@H](CC(N)=O)NC(=O)[C@H](CO)NC(=O)[C@H](Cc1c[nH]cn1)NC(=O)[C@H](Cc1c[nH]cn1)NC(=O)[C@H](CC(C)C)NC(=O)[C@H](Cc1ccccc1)NC(=O)[C@H](CCC(=O)O)NC(=O)[C@H](C)NC(=O)[C@H](CC(C)C)NC(=O)[C@H](CCCNC(=N)N)NC(=O)[C@H](CCC(N)=O)NC(=O)[C@@H](NC(=O)[C@H](C)NC(=O)[C@@H]1CSSC[C@H](NC(=O)[C@H](CCCNC(=N)N)NC(=O)CC[C@H](NC(=O)CCCCCCCCCCCCCCCCCCC(=O)O)C(=O)O)C(=O)N[C@@H](CC(N)=O)C(=O)N[C@@H]([C@@H](C)O)C(=O)N[C@@H](C)C(=O)N[C@@H]([C@@H](C)O)C(=O)N1)[C@@H](C)O [Compound 45, [19CD]-isoGlu-RC()NTATC()ATQRLAEFLHHSNNF-Gly(Me)-A-Ile(Me)-LSSTNVGSNTP-NH2] ({C20 diacid-γGlu}-RCNTATCATQRLAEFLHHSNNF[Sar]A[NMeI]LSSTNVGSNTP-NH2; disulfide 2-7)",II (II indicates solubility ≤ 1 mg/ml),II (II indicates solubility ≤ 1 mg/ml),II (II indicates solubility ≤ 1 mg/ml),II (II indicates solubility ≤ 1 mg/ml),II (II indicates solubility ≤ 1 mg/ml),II (II indicates solubility ≤ 1 mg/ml),II (II indicates solubility ≤ 1 mg/ml),–,140 pM
